{"source": "patent US12257326B2", "about": "“TCO conjugates and methods for delivery of therapeutic agents” (THE REGENTS OF THE UNIVERSITY OF CALIFORNIA, priority 2014, dated 2025)", "key": {"[1]": {"assay": "In-vivo kinetic biodistribution of fluorescence after TCO-R-Rhodamine injection", "set-up": "species or system mice", "conditions": "Tz-Me-Gel (released) vs negative control (no gel injection)", "procedure": "The bar graph extrapolates the data to a presumed total amount achieved in 8 hours.\n(§1) For in-vivo experiments, 800 μl of 2.5% alginate solution were mixed with 200 μl of supersaturated […] solution (0.21 g Ca(SO4)2/ml ddH2O). The solutions were mixed for 30 s using a three-way stopcock to achieve a final alginate concentration of 2%. The mixture was immediately injected to the animal in the desired amount.\nAfter IACUC approval, in-vivo real-time biodistribution studies of fluorescence were carried out in nu/nu mice (n=2 per condition) by injecting either nothing or a type of alginate (control vs Tz-Gel). Then subjects received a tail-vein injection of TCO-R-F or TCO-NR-F. The negative controls were: 1. No gels with TCO-R-F (Negative control, mouse 1); 2. control alginate with TCO-R-F (Gel control, mouse 4). The two experimental groups were Tz-gel and either TCO-R-F (Released protocol, mouse 2) or TCO-NR-F (Immobilized protocol, mouse 3). Fluorescence was measured with an IVIS Spectrum (Perkin Elmer, MA) and reported in radiance."}, "[2]": {"assay": "In-vivo kinetic multiple dose evaluation of fluorescence (IVIS Spectrum)", "set-up": "species or system mice", "conditions": "50 nmoles per tail vein injection; Tz-Me-gel group vs no gel and unmodified alginate gel; paired T-test, n=3", "procedure": "Three mice were evaluated after each injection of 50 nmoles of TCO-R-Rhodamine through tail vein injection. The mice were treated as described above their images. […] The “released” subject received an injection in the subcutaneous back of Tz-Me-gel. The “gel control” subject received an injection in the subcutaneous back of alginate gel. The mice were evaluated with an IVIS Spectrum machine after 5-10 minutes and 110-150 minutes after each dose of fluorophore.\nCompared by paired T-test (n=3).\nas §1"}}}
{"compound": "CN(C)c1ccc2c(-c3ccc(C(=O)NCCNC(=O)OC4/C=C/CCCCC4)cc3C(=O)O)c3ccc(=[N+](C)C)cc-3oc2c1", "note": "(centres unmarked) [TCO-R-Rhodamine, (E)-5-((2-(((cyclooct-2-cn-1-yloxy)carbonyl)amino)ethyl)carbamoyl)-2-(3-(dimethyl-Π^4-azanylidene)-6-(dimethylamino)-3H-xanthen-9-yl)benzoic acid]", "values": [{"measurement": "dose reflected by the area under the curve of fluorescence, extrapolated to total amount in 8 hours", "setting": "[1]", "result": "almost doubled"}, {"measurement": "average fluorescence at 5-10 minutes vs 110-150 minutes after second, third & fourth injection", "setting": "[2]", "result": "statistically higher"}]}
